Data as given in US12540120B2, “Herbicidal compounds” (SYNGENTA CROP PROTECTION AG, priority 2019, dated 2026).

Tests used:
Format in all cases: in vivo
[1] = tested on: Lolium perenne (LOLPE); assay: B1 Post-Emergence Efficacy—Test 1; conditions: post-emergence application, 1000 g/ha, evaluated after 13 days
Procedure: (§1) B1 Post-Emergence Efficacy—Test 1 Seeds of a variety of test species are sown in standard soil in pots:—Solanum nigrum (SOLNI), Amaranthus retoflexus (AMARE), Setaria faberi (SETFA), Echinochloa crus-galli (ECHCG), Ipomoea hederacea (IPOHE), Lolium perenne (LOLPE). After 8 days cultivation (post-emergence) under controlled conditions in a glasshouse (at 24/16° C., day/night; 14 hours light; 65% humidity), the plants are sprayed with an aqueous spray solution derived from the formulation of the technical active ingredient in acetone/water (50:50) solution containing 0.5% Tween 20 (polyoxyethylene sorbitan monolaurate, CAS RN 9005-64-5). Compounds are applied at 1000 g/ha. The test plants are then grown in a glasshouse under controlled conditions in a glasshouse (at 24/16° C., day/night; 14 hours light; 65% humidity) and watered twice daily. After 13 days, the test is evaluated for the percentage damage caused to the plant. The biological activities are assessed on a five point scale (5=80-100%; 4=60-79%; 3=40-59%; 2=20-39%; 1=0-19%). A blank value in the table is indicative that the compound was not tested on that species.

[2] = tested on: Amaranthus retoflexus (AMARE); assay: B1 Post-Emergence Efficacy—Test 1; conditions: post-emergence application, 1000 g/ha, evaluated after 13 days
Procedure: as §1

[3] = tested on: Setaria faberi (SETFA); assay: B1 Post-Emergence Efficacy—Test 1; conditions: post-emergence application, 1000 g/ha, evaluated after 13 days
Procedure: as §1

[4] = tested on: Ipomoea hederacea (IPOHE); assay: B1 Post-Emergence Efficacy—Test 1; conditions: post-emergence application, 1000 g/ha, evaluated after 13 days
Procedure: as §1

[5] = tested on: Solanum nigrum (SOLNI); assay: B1 Post-Emergence Efficacy—Test 1; conditions: post-emergence application, 1000 g/ha, evaluated after 13 days
Procedure: as §1

[6] = tested on: Echinochloa crus-galli (ECHCG); assay: B1 Post-Emergence Efficacy—Test 1; conditions: post-emergence application, 1000 g/ha, evaluated after 13 days
Procedure: as §1

[7] = tested on: Amaranthus retoflexus (AMARE); assay: B5 Pre-Emergence Efficacy—Test 2; conditions: 250 g/ha, evaluated after 13 days
How it was run: (§2)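 Compounds are applied pre-emergence at 250 g/ha, one day after sowing, in an aqueous acetone/water spray carrying 0.5% Tween 20. Damage is assessed 13 days later and scored from 1 (0-19%) to 5 (80-100%).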

[8] = tested on: Solanum nigrum (SOLNI); assay: B5 Pre-Emergence Efficacy—Test 2; conditions: 250 g/ha, evaluated after 13 days
How it was run: as §2

[9] = tested on: Lolium perenne (LOLPE); assay: B4 Pre-Emergence Efficacy—Test 1; conditions: pre-emergence application, 1000 g/ha, evaluated after 13 days
Procedure: (§3) B4 Pre-Emergence Efficacy—Test 1 Seeds of a variety of test species were sown in standard soil in pots: Solanum nigrum (SOLNI), Amaranthus retoflexus (AMARE), Setaria faberi (SETFA), Echinochloa crus-galli (ECHCG), Ipomoea hederacea (IPOHE), Lolium perenne (LOLPE). After cultivation for one day (pre-emergence) under controlled conditions in a glasshouse (at 24/16° C., day/night; 14 hours light; 65% humidity), the plants were sprayed with an aqueous spray solution derived from the formulation of the technical active ingredient in acetone/water (50:50) solution containing 0.5% Tween 20 (polyoxyethelyene sorbitan monolaurate, CAS RN 9005-64-5). Compounds are applied at 1000 g/ha. The test plants were then grown in a glasshouse under controlled conditions (at 24/16° C., day/night; 14 hours light; 65% humidity) and watered twice daily. After 13 days, the test is evaluated for the percentage damage caused to the plant. The biological activities are assessed on a five point scale (5=80-100%; 4=60-79%; 3=40-59%; 2=20-39%; 1=0-19%). A blank value in the table is indicative that the compound was not tested on that species.

[10] = tested on: Amaranthus retoflexus (AMARE); assay: B4 Pre-Emergence Efficacy—Test 1; conditions: pre-emergence application, 1000 g/ha, evaluated after 13 days
Procedure: as §3

[11] = tested on: Setaria faberi (SETFA); assay: B4 Pre-Emergence Efficacy—Test 1; conditions: pre-emergence application, 1000 g/ha, evaluated after 13 days
Procedure: as §3

[12] = tested on: Ipomoea hederacea (IPOHE); assay: B4 Pre-Emergence Efficacy—Test 1; conditions: pre-emergence application, 1000 g/ha, evaluated after 13 days
Procedure: as §3

[13] = tested on: Solanum nigrum (SOLNI); assay: B4 Pre-Emergence Efficacy—Test 1; conditions: pre-emergence application, 1000 g/ha, evaluated after 13 days
Procedure: as §3

[14] = tested on: Echinochloa crus-galli (ECHCG); assay: B4 Pre-Emergence Efficacy—Test 1; conditions: pre-emergence application, 1000 g/ha, evaluated after 13 days
Procedure: as §3

[15] = tested on: Lolium perenne (LOLPE); assay: B5 Pre-Emergence Efficacy—Test 2; set-up: key: 5-point scale: 5=80-100%, 4=60-79%, 3=40-59%, 2=20-39%, 1=0-19% damage; conditions: 250 g/ha, evaluated after 13 days
How it was run: as §2

[16] = tested on: Setaria faberi (SETFA); assay: B5 Pre-Emergence Efficacy—Test 2; set-up: key: 5-point scale: 5=80-100%, 4=60-79%, 3=40-59%, 2=20-39%, 1=0-19% damage; conditions: 250 g/ha, evaluated after 13 days
How it was run: as §2

[17] = tested on: Ipomoea hederacea (IPOHE); assay: B5 Pre-Emergence Efficacy—Test 2; set-up: key: 5-point scale: 5=80-100%, 4=60-79%, 3=40-59%, 2=20-39%, 1=0-19% damage; conditions: 250 g/ha, evaluated after 13 days
How it was run: as §2

[18] = tested on: Echinochloa crus-galli (ECHCG); assay: B5 Pre-Emergence Efficacy—Test 2; set-up: key: 5-point scale: 5=80-100%, 4=60-79%, 3=40-59%, 2=20-39%, 1=0-19% damage; conditions: 250 g/ha, evaluated after 13 days
How it was run: as §2

[19] = tested on: Lolium perenne (LOLPE); assay: B2 Post-Emergence Efficacy—Test 2; conditions: post-emergence application, 250 g/ha, evaluated after 13 days (Test 2)
How it was run: (§4)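 Damage scores (five-point scale, 5=80-100%, 4=60-79%, 3=40-59%, 2=20-39%, 1=0-19%) reflect percentage injury 13 days after treatment. Plants received 250 g/ha as a post-emergence spray at 8 days after sowing.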

[20] = tested on: Amaranthus retoflexus (AMARE); assay: B2 Post-Emergence Efficacy—Test 2; conditions: post-emergence application, 250 g/ha, evaluated after 13 days (Test 2)
How it was run: as §4

[21] = tested on: Setaria faberi (SETFA); assay: B2 Post-Emergence Efficacy—Test 2; conditions: post-emergence application, 250 g/ha, evaluated after 13 days (Test 2)
How it was run: as §4

[22] = tested on: Ipomoea hederacea (IPOHE); assay: B2 Post-Emergence Efficacy—Test 2; conditions: post-emergence application, 250 g/ha, evaluated after 13 days (Test 2)
How it was run: as §4

[23] = tested on: Solanum nigrum (SOLNI); assay: B2 Post-Emergence Efficacy—Test 2; conditions: post-emergence application, 250 g/ha, evaluated after 13 days (Test 2)
How it was run: as §4

[24] = tested on: Echinochloa crus-galli (ECHCG); assay: B2 Post-Emergence Efficacy—Test 2; conditions: post-emergence application, 250 g/ha, evaluated after 13 days (Test 2)
How it was run: as §4

Cc1nn(C)c(=O)c(-c2c(F)ccc(Cl)c2CCc2ccc(C#N)cc2)c1O [Compound A-1.036, 4-[2-[6-chloro-3-fluoro-2-(5-hydroxy-2,6-dimethyl-3-oxo-pyridazin-4-yl)phenyl]ethyl]benzonitrile]
5 (5=80-100%): percentage damage caused to the plant, five point scale, LOLPE [1] | percentage damage caused to the plant, five point scale, AMARE [2] | percentage damage caused to the plant, five point scale, SETFA [3] | percentage damage caused to the plant, five point scale, IPOHE [4] | percentage damage caused to the plant, five point scale, SOLNI [5] | percentage damage caused to the plant, five point scale, ECHCG [6] | Control of weed species after pre-emergence application, AMARE (percentage damage, five point scale) [7] | Control of weed species after pre-emergence application, SOLNI (percentage damage, five point scale) [8] | percentage damage caused to the plant, five point scale, LOLPE [9] | percentage damage caused to the plant, five point scale, AMARE [10] | percentage damage caused to the plant, five point scale, SETFA [11] | percentage damage caused to the plant, five point scale, IPOHE [12] | percentage damage caused to the plant, five point scale, SOLNI [13] | percentage damage caused to the plant, five point scale, ECHCG [14] | Control of weed species after pre-emergence application, LOLPE (percentage damage, five point scale) [15] | Control of weed species after pre-emergence application, SETFA (percentage damage, five point scale) [16] | Control of weed species after pre-emergence application, IPOHE (percentage damage, five point scale) [17] | Control of weed species after pre-emergence application, ECHCG (percentage damage, five point scale) [18] | percentage damage caused to the plant, five point scale, LOLPE [19] | percentage damage caused to the plant, five point scale, AMARE [20] | percentage damage caused to the plant, five point scale, SETFA [21] | percentage damage caused to the plant, five point scale, IPOHE [22] | percentage damage caused to the plant, five point scale, SOLNI [23] | percentage damage caused to the plant, five point scale, ECHCG [24]
